{"source": "paper PMC7730235", "about": "“Discovery of a Novel Class of Covalent Dual Inhibitors Targeting the Protein Kinases BMX and BTK” (International Journal of Molecular Sciences, 2020)", "key": {"glutathione (GSH)": {"test_system": "glutathione (GSH)", "test": "Glutathione reactivity / stability against GSH", "format": "physicochemical", "conditions": "glutathione (GSH) in PBS buffer, pH 7.4, 5 mM GSH, read-out: half-life (t1/2) against glutathione (converted)", "procedure": "A total of 5 µL of a 10 mM compound stock solution in DMSO were added to 5 µL of a 4 mM Indoprofen solution in PBS as internal standard. The mixture was diluted with PBS buffer to a total volume of 1 mL of component A. Additionally, a freshly prepared solution of 10 mM GSH in PBS buffer was used as component B. A total of 250 µL of each component was mixed and immediately subjected to HPLC analysis for t^0 measurement. The probes were stored at 40 °C in between the respective injections. t1/2 was determined by plotting natural logarithm of AUC/AUC0 against time."}, "HER2": {"molecular_target": "T1, HER2 (Homo sapiens, UniProt P04626)", "T1 construct": "purchased Reaction Biology Corporation", "T1 sequence (P04626 23-1255)": "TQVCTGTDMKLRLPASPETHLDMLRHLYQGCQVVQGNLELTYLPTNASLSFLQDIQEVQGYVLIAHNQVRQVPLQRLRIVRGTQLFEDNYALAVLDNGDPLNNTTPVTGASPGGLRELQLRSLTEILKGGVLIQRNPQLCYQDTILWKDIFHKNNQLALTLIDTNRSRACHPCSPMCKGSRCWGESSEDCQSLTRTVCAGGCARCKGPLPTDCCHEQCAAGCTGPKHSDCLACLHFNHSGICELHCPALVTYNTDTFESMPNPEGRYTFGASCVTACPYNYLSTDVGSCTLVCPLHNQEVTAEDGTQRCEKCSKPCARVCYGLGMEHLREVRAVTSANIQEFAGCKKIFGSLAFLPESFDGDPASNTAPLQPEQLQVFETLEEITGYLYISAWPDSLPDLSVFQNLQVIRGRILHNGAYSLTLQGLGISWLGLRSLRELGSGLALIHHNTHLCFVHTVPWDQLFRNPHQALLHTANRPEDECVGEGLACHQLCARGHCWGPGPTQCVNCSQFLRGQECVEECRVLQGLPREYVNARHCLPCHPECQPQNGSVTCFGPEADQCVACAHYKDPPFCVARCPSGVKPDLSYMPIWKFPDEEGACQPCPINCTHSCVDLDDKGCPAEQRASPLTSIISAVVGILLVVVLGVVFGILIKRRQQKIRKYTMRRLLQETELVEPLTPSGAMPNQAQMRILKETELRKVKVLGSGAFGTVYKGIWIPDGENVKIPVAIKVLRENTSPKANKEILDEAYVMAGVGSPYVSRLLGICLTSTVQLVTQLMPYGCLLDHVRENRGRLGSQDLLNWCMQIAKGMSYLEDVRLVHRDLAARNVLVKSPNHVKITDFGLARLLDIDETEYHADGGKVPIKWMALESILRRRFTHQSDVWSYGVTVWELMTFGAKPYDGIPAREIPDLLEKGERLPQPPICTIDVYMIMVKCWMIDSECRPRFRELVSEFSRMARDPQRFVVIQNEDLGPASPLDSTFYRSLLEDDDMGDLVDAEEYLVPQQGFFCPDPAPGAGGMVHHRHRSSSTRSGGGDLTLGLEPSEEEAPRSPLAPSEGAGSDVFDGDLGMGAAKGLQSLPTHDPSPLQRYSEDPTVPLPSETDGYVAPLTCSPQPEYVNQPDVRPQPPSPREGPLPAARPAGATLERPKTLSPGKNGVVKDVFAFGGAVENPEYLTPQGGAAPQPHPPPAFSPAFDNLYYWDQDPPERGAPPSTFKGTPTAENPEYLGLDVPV", "test": "Radiometric kinase assay (Reaction Biology HotSpot)", "format": "biochemical", "conditions": "radiometric HotSpot, five-dose singlicate, [ATP] = 10 μM", "procedure": "(§1) If not mentioned differently, in vitro profiling of compounds was performed at Reaction Biology Corporation using the HotSpot™ assay platform."}, "TXK": {"molecular_target": "T2, TXK (Homo sapiens, UniProt P42681)", "T2 construct": "purchased Reaction Biology Corporation", "T2 sequence (P42681 1-527)": "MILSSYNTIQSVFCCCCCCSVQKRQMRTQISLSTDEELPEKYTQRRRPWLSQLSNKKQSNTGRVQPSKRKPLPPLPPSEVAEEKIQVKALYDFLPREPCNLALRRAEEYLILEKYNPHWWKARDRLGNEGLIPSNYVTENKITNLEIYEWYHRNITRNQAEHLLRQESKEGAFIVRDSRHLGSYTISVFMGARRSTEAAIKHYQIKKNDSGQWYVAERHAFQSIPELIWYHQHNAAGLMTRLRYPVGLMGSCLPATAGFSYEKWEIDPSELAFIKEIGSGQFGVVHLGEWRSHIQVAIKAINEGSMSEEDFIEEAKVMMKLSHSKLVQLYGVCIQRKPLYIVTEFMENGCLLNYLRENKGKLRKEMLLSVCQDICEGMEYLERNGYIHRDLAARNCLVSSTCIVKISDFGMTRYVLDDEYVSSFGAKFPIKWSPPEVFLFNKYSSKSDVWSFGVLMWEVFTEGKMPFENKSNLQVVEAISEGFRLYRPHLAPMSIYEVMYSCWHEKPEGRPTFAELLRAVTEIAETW", "test": "Radiometric kinase assay (Reaction Biology HotSpot)", "format": "biochemical", "conditions": "radiometric HotSpot, five-dose singlicate, [ATP] = 10 μM", "procedure": "as §1"}, "JAK3": {"molecular_target": "T3, JAK3 (Homo sapiens, UniProt P52333)", "T3 construct": "purchased Reaction Biology Corporation", "T3 sequence (P52333 1-1124)": "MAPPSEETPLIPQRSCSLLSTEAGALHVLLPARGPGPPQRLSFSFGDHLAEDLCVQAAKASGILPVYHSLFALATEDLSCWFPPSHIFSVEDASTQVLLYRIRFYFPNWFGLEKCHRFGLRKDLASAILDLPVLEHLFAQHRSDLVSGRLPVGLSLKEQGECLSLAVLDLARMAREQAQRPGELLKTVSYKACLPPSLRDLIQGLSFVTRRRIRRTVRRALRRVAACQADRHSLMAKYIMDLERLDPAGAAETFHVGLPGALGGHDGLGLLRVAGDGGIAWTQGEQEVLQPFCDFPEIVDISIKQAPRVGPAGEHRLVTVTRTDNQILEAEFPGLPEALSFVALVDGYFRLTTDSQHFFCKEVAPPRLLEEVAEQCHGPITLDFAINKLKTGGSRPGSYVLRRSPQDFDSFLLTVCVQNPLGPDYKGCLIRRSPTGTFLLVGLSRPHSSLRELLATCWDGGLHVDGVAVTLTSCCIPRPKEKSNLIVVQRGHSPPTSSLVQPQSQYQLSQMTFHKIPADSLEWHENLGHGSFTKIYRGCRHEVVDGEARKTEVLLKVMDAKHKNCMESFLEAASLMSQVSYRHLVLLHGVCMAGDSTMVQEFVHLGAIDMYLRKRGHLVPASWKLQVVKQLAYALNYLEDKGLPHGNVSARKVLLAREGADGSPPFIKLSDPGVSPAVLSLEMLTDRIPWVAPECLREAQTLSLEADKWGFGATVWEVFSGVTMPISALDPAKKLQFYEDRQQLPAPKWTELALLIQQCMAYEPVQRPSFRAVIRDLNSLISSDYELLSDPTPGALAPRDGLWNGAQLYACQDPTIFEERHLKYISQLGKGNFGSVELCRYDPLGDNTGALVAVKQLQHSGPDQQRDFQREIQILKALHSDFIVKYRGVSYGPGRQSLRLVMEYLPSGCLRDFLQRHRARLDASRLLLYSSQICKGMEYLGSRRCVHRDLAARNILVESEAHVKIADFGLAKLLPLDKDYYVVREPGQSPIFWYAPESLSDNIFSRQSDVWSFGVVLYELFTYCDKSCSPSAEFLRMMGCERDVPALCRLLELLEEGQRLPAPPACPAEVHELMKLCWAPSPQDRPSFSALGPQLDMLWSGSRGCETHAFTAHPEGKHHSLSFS", "test": "Radiometric kinase assay (Reaction Biology HotSpot)", "format": "biochemical", "procedure": "as §1"}, "BLK": {"molecular_target": "T4, BLK (Homo sapiens, UniProt P51451)", "T4 construct": "purchased Reaction Biology Corporation", "T4 sequence (P51451 whole entry)": "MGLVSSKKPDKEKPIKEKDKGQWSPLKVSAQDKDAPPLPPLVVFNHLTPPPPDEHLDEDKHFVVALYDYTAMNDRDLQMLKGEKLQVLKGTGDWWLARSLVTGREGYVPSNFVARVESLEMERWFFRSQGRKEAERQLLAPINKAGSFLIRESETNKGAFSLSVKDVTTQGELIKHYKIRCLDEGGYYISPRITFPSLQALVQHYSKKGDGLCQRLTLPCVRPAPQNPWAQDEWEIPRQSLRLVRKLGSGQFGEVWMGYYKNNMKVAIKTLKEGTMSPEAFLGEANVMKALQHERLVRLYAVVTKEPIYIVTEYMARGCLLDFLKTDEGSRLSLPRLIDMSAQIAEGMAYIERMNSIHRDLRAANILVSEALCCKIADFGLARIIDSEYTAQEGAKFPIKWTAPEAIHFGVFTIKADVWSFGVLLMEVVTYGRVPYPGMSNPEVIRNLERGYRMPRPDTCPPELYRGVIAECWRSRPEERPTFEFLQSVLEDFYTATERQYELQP", "test": "Radiometric kinase assay (Reaction Biology HotSpot)", "format": "biochemical", "conditions": "radiometric HotSpot, five-dose singlicate, [ATP] = 10 μM", "procedure": "as §1"}, "ITK": {"molecular_target": "T5, ITK (Homo sapiens, UniProt Q08881)", "T5 construct": "purchased Reaction Biology Corporation", "T5 sequence (Q08881 1-620)": "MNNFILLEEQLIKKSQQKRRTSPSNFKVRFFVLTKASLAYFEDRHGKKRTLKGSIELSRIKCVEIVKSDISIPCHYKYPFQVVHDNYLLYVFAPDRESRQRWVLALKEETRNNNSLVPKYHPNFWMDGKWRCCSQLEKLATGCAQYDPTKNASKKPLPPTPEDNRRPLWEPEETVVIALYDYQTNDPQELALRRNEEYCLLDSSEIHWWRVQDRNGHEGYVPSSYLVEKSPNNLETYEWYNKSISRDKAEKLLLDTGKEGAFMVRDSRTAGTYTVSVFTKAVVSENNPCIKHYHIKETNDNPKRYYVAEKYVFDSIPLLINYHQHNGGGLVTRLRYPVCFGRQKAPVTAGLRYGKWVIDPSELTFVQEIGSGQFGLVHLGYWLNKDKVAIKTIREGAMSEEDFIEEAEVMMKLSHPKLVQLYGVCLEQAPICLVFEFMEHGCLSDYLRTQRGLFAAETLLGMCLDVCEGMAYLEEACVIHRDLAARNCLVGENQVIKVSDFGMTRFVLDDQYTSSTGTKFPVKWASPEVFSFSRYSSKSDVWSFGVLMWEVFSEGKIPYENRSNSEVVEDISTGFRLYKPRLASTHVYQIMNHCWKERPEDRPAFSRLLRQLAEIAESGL", "test": "Radiometric kinase assay (Reaction Biology HotSpot)", "format": "biochemical", "conditions": "read-out: Residual Activity @ 200 nM, ITK", "procedure": "as §1"}, "HER4": {"molecular_target": "T6, HER4 (Homo sapiens, UniProt Q15303)", "T6 construct": "purchased Reaction Biology Corporation", "T6 sequence (Q15303 26-1308)": "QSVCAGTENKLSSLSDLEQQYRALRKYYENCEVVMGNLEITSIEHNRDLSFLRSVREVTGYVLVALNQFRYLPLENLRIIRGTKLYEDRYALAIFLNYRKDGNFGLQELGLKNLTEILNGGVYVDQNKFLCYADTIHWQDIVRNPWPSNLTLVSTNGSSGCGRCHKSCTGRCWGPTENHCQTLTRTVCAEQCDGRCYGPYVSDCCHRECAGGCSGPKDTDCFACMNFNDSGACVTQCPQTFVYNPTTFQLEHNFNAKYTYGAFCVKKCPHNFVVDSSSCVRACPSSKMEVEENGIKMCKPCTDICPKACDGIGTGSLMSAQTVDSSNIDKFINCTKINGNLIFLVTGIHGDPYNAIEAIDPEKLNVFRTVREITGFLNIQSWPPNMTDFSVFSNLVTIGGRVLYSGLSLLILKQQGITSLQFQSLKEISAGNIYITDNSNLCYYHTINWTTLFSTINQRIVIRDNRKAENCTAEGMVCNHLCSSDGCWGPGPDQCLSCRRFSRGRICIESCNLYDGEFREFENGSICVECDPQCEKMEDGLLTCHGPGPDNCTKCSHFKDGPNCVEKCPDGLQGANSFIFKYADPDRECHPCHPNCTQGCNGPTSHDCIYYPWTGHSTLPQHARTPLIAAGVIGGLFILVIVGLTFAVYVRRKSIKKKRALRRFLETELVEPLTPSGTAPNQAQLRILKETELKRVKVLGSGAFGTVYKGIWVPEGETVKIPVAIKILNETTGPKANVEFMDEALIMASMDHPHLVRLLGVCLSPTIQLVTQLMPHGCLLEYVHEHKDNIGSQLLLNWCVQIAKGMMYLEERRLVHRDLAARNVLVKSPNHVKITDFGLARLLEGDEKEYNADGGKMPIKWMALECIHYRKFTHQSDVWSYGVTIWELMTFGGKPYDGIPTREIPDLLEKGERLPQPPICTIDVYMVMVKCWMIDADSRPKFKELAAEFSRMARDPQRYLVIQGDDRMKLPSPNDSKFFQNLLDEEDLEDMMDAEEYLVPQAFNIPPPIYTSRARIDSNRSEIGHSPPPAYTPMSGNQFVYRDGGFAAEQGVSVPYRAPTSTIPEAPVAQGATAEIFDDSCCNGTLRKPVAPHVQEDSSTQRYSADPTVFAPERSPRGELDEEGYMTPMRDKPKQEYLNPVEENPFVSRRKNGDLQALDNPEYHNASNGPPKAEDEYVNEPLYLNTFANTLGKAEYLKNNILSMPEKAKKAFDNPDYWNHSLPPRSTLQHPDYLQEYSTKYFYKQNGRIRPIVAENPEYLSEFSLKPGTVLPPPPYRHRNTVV", "test": "Radiometric kinase assay (Reaction Biology HotSpot)", "format": "biochemical", "conditions": "radiometric HotSpot, five-dose singlicate, [ATP] = 10 μM", "procedure": "as §1"}, "EGFR": {"molecular_target": "T7, EGFR (Homo sapiens, UniProt P00533)", "T7 construct": "purchased Reaction Biology Corporation", "T7 sequence (P00533 25-1210)": "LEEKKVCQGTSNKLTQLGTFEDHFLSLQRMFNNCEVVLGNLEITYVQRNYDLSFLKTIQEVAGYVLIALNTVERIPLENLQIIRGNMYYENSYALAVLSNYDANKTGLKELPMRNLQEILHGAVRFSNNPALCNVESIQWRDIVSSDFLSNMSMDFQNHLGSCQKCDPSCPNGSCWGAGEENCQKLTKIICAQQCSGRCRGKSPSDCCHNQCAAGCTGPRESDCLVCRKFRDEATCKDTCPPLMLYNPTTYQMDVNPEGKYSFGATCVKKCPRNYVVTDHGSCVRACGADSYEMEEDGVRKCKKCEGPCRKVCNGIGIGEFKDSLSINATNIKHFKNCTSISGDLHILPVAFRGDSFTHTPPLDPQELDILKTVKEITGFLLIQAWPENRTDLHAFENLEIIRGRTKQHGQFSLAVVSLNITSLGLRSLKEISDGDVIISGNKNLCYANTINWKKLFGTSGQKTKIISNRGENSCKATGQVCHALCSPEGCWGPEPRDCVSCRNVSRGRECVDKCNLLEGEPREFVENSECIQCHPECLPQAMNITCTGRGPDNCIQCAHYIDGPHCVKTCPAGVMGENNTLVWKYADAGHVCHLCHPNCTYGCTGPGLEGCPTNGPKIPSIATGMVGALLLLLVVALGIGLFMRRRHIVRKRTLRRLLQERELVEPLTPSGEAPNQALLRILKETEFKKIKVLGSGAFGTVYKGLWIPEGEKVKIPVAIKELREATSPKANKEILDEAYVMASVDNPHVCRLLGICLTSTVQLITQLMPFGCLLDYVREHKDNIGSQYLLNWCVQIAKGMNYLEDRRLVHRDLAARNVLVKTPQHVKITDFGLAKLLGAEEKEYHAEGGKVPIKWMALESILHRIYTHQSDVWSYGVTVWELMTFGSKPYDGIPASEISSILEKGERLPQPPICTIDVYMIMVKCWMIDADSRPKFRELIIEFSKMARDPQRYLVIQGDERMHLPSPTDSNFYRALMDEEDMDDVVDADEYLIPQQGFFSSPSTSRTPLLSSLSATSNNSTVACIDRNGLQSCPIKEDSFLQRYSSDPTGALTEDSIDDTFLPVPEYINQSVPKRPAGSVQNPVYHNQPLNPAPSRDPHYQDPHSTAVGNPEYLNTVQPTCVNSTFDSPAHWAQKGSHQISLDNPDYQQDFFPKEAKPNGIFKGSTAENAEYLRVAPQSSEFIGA", "test": "Radiometric kinase assay (Reaction Biology HotSpot)", "format": "biochemical", "conditions": "radiometric HotSpot, five-dose singlicate, [ATP] = 10 μM", "procedure": "as §1"}, "MKK7": {"molecular_target": "T8, MKK7 (Homo sapiens, UniProt O14733)", "T8 construct": "purchased Reaction Biology Corporation", "T8 sequence (O14733 1-419)": "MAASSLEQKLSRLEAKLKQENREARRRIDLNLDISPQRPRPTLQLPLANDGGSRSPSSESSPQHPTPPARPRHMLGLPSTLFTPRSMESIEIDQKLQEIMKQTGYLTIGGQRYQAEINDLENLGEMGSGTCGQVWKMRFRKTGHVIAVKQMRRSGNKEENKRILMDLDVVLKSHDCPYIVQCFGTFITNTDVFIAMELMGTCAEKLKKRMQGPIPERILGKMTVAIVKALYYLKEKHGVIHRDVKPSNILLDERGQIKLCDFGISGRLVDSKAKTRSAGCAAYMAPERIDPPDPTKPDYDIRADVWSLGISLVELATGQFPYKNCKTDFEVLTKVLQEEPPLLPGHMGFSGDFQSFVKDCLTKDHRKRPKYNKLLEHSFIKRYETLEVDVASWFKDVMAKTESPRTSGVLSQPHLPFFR", "test": "Radiometric kinase assay (Reaction Biology HotSpot)", "format": "biochemical", "conditions": "read-out: Residual Activity @ 200 nM, MKK7", "procedure": "as §1"}, "TEC": {"molecular_target": "T9, TEC (Homo sapiens, UniProt P42680)", "T9 construct": "purchased Reaction Biology Corporation", "T9 sequence (P42680 1-631)": "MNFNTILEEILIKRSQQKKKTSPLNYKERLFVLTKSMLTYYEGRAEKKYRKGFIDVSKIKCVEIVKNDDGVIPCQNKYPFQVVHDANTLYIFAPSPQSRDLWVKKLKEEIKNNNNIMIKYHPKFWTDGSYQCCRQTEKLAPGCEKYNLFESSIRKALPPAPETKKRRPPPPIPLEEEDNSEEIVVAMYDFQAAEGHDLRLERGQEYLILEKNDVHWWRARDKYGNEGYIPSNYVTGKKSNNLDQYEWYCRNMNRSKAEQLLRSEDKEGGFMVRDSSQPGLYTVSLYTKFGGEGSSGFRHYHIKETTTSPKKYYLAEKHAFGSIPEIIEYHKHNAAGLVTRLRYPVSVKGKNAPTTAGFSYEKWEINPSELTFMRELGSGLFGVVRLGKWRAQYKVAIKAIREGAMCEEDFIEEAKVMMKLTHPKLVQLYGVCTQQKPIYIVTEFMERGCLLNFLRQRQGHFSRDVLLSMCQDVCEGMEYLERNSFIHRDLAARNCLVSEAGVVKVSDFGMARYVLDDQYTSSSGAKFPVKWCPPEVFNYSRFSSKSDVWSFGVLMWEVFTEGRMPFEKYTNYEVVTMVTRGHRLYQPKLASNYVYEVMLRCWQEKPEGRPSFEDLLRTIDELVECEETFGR", "test": "Radiometric kinase assay (Reaction Biology HotSpot)", "format": "biochemical", "conditions": "radiometric HotSpot, five-dose singlicate, [ATP] = 10 μM", "procedure": "as §1"}, "BMX": {"molecular_target": "T10, BMX (Homo sapiens, UniProt P51813)", "T10 construct": "purchased Reaction Biology Corporation", "T10 sequence (P51813 1-675)": "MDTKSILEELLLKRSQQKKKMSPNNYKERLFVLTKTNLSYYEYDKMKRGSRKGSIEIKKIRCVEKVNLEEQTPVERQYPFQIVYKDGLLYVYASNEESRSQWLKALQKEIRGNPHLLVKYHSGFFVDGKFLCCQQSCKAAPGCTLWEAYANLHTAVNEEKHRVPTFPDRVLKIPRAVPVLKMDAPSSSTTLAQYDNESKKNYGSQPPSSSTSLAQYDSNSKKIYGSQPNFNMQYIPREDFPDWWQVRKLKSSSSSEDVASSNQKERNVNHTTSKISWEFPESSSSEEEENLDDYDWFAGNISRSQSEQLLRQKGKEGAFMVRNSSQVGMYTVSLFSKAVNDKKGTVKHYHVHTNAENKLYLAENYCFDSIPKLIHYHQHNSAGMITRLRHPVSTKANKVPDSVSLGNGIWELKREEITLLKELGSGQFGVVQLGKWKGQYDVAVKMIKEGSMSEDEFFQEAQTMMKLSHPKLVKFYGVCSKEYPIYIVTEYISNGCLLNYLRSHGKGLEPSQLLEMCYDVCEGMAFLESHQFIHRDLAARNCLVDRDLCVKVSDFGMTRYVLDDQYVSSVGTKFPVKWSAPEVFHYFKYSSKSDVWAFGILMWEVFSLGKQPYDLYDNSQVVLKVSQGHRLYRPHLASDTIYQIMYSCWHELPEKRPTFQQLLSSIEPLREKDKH", "conditions": "cited from earlier work"}}, "note": "pIC50: −log10 of the molar value.", "data": [{"compound": "CN(C)C/C=C/C(=O)Nc1cc2c(Nc3ccc(F)c(Cl)c3)ncnc2cc1O[C@H]1CCOC1", "note": "[Afatinib, reference compound]", "values": [{"measurement": "half-life at 25 µM", "setting": "glutathione (GSH)", "value": 45.6, "unit": "min"}]}, {"compound": "C=CC(=O)Nc1cccc(-c2c[nH]c3ncc(NC(=O)C4CCCC4)cc23)c1", "note": "[Compound 12a, N-(3-(3-acrylamidophenyl)-1H-pyrrolo[2,3-b]pyridin-5-yl)cyclopentanecarboxamide]", "values": [{"measurement": "pIC50", "setting": "HER2", "value": 6.21}, {"measurement": "pIC50", "setting": "TXK", "value": 7.89}, {"measurement": "pIC50", "setting": "JAK3; radiometric HotSpot, five-dose singlicate, [ATP] = 10 μM", "value": 5.87}, {"measurement": "remaining activity at 0.2 µM", "setting": "JAK3; read-out: Residual Activity @ 200 nM, JAK3", "value": 94.5, "unit": "%"}, {"measurement": "pIC50", "setting": "BLK", "value": 7.28}, {"measurement": "remaining activity at 0.2 µM", "setting": "ITK", "value": 98.5, "unit": "%"}, {"measurement": "pIC50", "setting": "HER4", "value": 6.97}, {"measurement": "pIC50", "setting": "EGFR", "value": 6.80}, {"measurement": "remaining activity at 0.2 µM", "setting": "MKK7", "value": 100, "unit": "%"}, {"measurement": "pIC50", "setting": "TEC", "value": 7.51}]}, {"compound": "C=CC(=O)Nc1cc(C)cc(-n2c(=O)ccc3cnc4cc(-c5ccc(NS(C)(=O)=O)cc5)ccc4c32)c1", "note": "[JS25]", "values": [{"measurement": "kinact/KI BMX", "setting": "BMX", "value": "1.9e+07", "unit": "M⁻¹ s⁻¹"}]}]}
